Laboratory results taken from patent US12162901B2, “N-acetylated sialic acids and related sialosides” (priority 2016, dated 2024).

What was measured:
BJA-B K20 cells [1] = assay: Feeding of free sialic acids to BJA-B K20 cells, DMB derivatization and HPLC of membrane sialic acids; conditions: 1 mM for 3 days; sialic acids released with Vibrio cholerae neuraminidase
BJA-B K20 cells [2] = assay: Feeding of free sialic acids to BJA-B K20 cells, PToV probes, flow cytometry; format: cell-based, human; conditions: 1 mM free sialic acid, three days of feeding
human CD22-Fc/Siglec-2 = assay: Feeding of free sialic acids to BJA-B K20 cells, probing with human CD22-Fc, flow cytometry; format: cell-based; conditions: 3 mM, 3 days of feeding
Method: Cell Culture and Sugar Supplementation.
Flow Cytometry. Cells were washed with PBS and incubated with 10 μg/mL of PToV probes in PBS with 1% BSA and 10 mM EDTA for 30 minutes on ice. Subsequently, cells were washed with PBS and incubated with PE goat anti-human IgG antibody for 30 minutes on ice. After an additional washing step, the cells were analyzed by FACSCalibur (BD).
After 3 days of feeding, BJA-B K20 cells were probed with human CD22-Fc/Siglec-2 to detect ligands (FIG. 7). […] However, when the cells were grown in the presence of Neu5Ac9NAc, the expression of the CD22 ligand was minimal (FIG. 7C). […] This supports previous observations that human CD22-Fc recognizes α2-6-linked sialosides with Neu5Ac or N-glycolylneuraminic acid (Neu5Gc) as the preferred naturally existing sialic acid form and 9-O-acetyl modification on sialic acid blocks the binding.

influenza C virus = conditions: background statement; cited from earlier work

SMILES: CC(=O)NC[C@@H](O)[C@@H](O)[C@@H]1OC(O)(C(=O)O)C[C@H](O)[C@H]1NC(C)=O (stereo partly drawn) [Neu5Ac9NAc, 5,9-Diacetamido-3,5,9-Trideoxy-D-glycero-D-galacto-2-nonulopyranosylonic Acid]
- incorporation on the cell membrane (DMB-HPLC) (BJA-B K20 cells [1]): showed incorporation
- cell surface incorporation detected with PToV probe (BJA-B K20 cells [2]): detected on the cell surface
- expression of CD22 ligand on fed cells (human CD22-Fc/Siglec-2): minimal
- binding to influenza C virus and fate under hemagglutinin-esterase (influenza C virus): mimic Neu5,9Ac2 in binding to influenza C virus without being destroyed by esterase activity
